Laboratory results reported in US5422344A, “Method of treating retroviral infections in mammals” (The United States of America as represented by the …, priority 1990, dated 1995).
Like-named read-outs stand apart in the source and are kept apart here.

Columns and labels:
H9 cells = experiment: Cell number, viability (trypan blue dye exclusion) and growth of H9 cells; format: cell-based; details: for Cell No.: 7 days postinfection
Moloney MuLV = Moloney MuLV replication in vitro; format: cell-based, Moloney murine leukemia virus
[1] = tested on: equine infectious anemia virus (EIAV); experiment: EIAV replication / infection in cells; format: cell-based
[2] = tested on: Spleen Focus Forming Virus (SFFV); experiment: Inhibition of disease induction in vivo by SFFV, IV or IP; parameters: species or system NFS mice; details: CPT 20 mg/kg; for # diseased mice (diseased/injected) / AVG. spleen WT.: 4 weeks
Description: Inhibition of Disease Induction In Vivo by Spleen Focus Forming Virus (SFFV) by Intravenous or Intraperitoneal Infection of CPT. In a repeat and extension of the previous experiment, NFS mice were injected either intraperitoneally or intravenously with dilutions of infectious virus stock in the presence or absence of CPT. Virus was mixed with stocks of CPT dissolved in DMSO at 10 mg/ml and adjusted so that mice were treated at 20 mg/kg. In samples without CPT, DMSO was added to an equivalent concentration (9.6%). In both IP and IV injections, 0.5ml was injected per mouse. Animals were monitored and sacrificed 4 weeks after injection. Spleens were weighed, and a spleen weight in excess of 0.2 gm was judged positive for SFFV disease.

mammalian cells = details: cytotoxic doses, Wall et al., cited from earlier work
[3] = tested on: Simian Virus 40 DNA replication; details: Snapka 1986; cited from earlier work
viral associated topo I = experiment: Inhibition of viral associated topo I activity; format: biochemical
eukaryotic topo I = details: Gupta et al. 1988; cited from earlier work
[4] = tested on: HIV-IIIB (HIV-1) replication in H9 cells; experiment: HIV replication (RT activity) in acute infection of H9 cells; format: cell-based; details: for RT activity: 7 days postinfection; for RT/Cell: 1 h treatment
Description: HIV-Acute Infection of H9 Cells by HIV and Drug Treatment: One ml of culture supernatant of H9/HIV-IIIB cells (10^6 /ml) was used after centrifugation (200xg, 20 min) and filtration (0.45 μm) for infecting 10^5 H9 cells in the presence or absence of different levels of CPT, m-AMSA or VP-16. Control cells received equivalent volumes of DMSO. The cells were incubated for 1 h at 37° C., pelleted, washed and resuspended in fresh media. […] (1981) J. Virol. 38: 239-48.
CPT Inhibition of HIV Replication Following Acute Infection of H9 Cells with HIV-IIIB. In order to determine appropriate concentrations of CPT which would permit cell viability and growth while inhibiting viral infection or replication, H9 cells were infected with HIV-IIIB as described above in the absence or presence of different CPT doses. The cells were incubated for 1 h at 37° C., pelleted, washed and resuspended in fresh media. Reverse transcriptase (RT) activity in the culture media was measured seven days after infection.
Since CPT is an anticancer drug and a known topo I inhibitor, its effects on HIV replication were compared to those of other anticancer drugs which are known to inhibit the related topoisomerase II enzyme.

SMILES: CC[C@@]1(O)C(=O)OCc2c1cc1n(c2=O)Cc2cc3ccccc3nc2-1 [CPT, Camptothecin]
- Cell No. (H9 cells; 0.005 μM CPT): 2 × 10^6
- Cell No. (H9 cells; 0.01 μM CPT): 2.2 × 10^6
- Cell No. (H9 cells; 0.02 μM CPT): 4 × 10^5
- Cell No. (H9 cells; 0.05 μM CPT): 1 × 10^5
- Cell No. (H9 cells; 0.1 μM CPT): 1 × 10^5
- Cell No. (H9 cells; 0.2 μM CPT): 1 × 10^5
- effect on cell viability or cell growth (H9 cells; 0.005-0.02 μM CPT): no effect on cell viability or cell growth was detected
- effect on cell growth (H9 cells; 0.05-0.2 μM CPT): cell growth was arrested
- effect on cell viability (H9 cells; 0.05-0.2 μM CPT, trypan blue dye exclusion): no effect on cell viability was detected
- inhibiting the initiation of infection by Moloney MuLV (Moloney MuLV; cell culture): has been demonstrated
- Moloney MuLV replication (Moloney MuLV; in vitro): inhibits Moloney MuLV replication in vitro
- inhibiting the initiation of infection by EIAV ([1]; cell culture): has been demonstrated
- EIAV replication ([1]; chronically-infected cells): inhibits equine infectious anemia virus (EIAV) replication in chronically-infected cells
- # diseased mice (diseased/injected) ([2]; no virus, IP): 0/5
- AVG. spleen WT. ([2]; no virus, IP): 0.10 g
- # diseased mice (diseased/injected) ([2]; no virus, IV): 0/5
- AVG. spleen WT. ([2]; no virus, IV): 0.10 g
- injected mice died within 24 hours of causes unrelated to viral disease ([2]; virus 1/500, IP): 4/5
- # diseased mice (diseased/injected) ([2]; virus 1/500, IP): 0/1
- AVG. spleen WT. ([2]; virus 1/500, IP): 0.20 g
- # diseased mice (diseased/injected) ([2]; virus 1/500, IV): 0/5
- AVG. spleen WT. ([2]; virus 1/500, IV): 0.10 g
- injected mice died within 24 hours of causes unrelated to viral disease ([2]; virus 1/1000, IP): 3/5
- # diseased mice (diseased/injected) ([2]; virus 1/1000, IP): 0/2
- AVG. spleen WT. ([2]; virus 1/1000, IP): 0.15 g
- # diseased mice (diseased/injected) ([2]; virus 1/1000, IV): 0/5
- AVG. spleen WT. ([2]; virus 1/1000, IV): 0.12 g
- fragmentation of DNA (mammalian cells; mammalian cells): causes rapid and reversible fragmentation of DNA in mammalian cells
- RNA and DNA synthesis (mammalian cells): inhibits RNA and DNA synthesis
- Simian Virus 40 DNA replication [3]: selectively interferes with Simian Virus 40 DNA replication
- viral associated topo I activity (viral associated topo I): inhibited
- inhibition of eukaryotic topo I (eukaryotic topo I): known specific inhibitor of eukaryotic topo I
- RT activity ([4]; 0.005 μM CPT, 1 h): 429 ± 116 cpm/cell 10^5
- RT/Cell ([4]; 0.005 μM CPT, day 7 after infection): 5400 cpm/10^5 Cell
- RT/Cell ([4]; 0.005 μM CPT, day 8 after infection): 34268 cpm/10^5 Cell
- RT/Cell ([4]; 0.005 μM CPT, day 9 after infection): 102450 cpm/10^5 Cell
- RT activity ([4]; 0.01 μM CPT, 1 h): 528 ± 40 cpm/cell 10^5
- RT/Cell ([4]; 0.01 μM CPT, day 7 after infection): 5085 cpm/10^5 Cell
- RT/Cell ([4]; 0.01 μM CPT, day 8 after infection): 33968 cpm/10^5 Cell
- RT/Cell ([4]; 0.01 μM CPT, day 9 after infection): 112870 cpm/10^5 Cell
- RT activity ([4]; 0.02 μM CPT, 1 h): 400 ± 103 cpm/cell 10^5
- RT/Cell ([4]; 0.02 μM CPT, day 7 after infection): 29.7 cpm/10^5 Cell
- RT/Cell ([4]; 0.02 μM CPT, day 8 after infection): 325 cpm/10^5 Cell
- RT/Cell ([4]; 0.02 μM CPT, day 9 after infection): 65761 cpm/10^5 Cell
- inhibition of HIV production ([4]; 0.05 μM CPT, 8 and 9 days after infection): essentially complete inhibition of HIV production
- RT activity ([4]; 0.05 μM CPT, 1 h): 235 ± 62 cpm/cell 10^5
- RT/Cell ([4]; 0.05 μM CPT, day 7 after infection): 0.03 cpm/10^5 Cell
- RT/Cell ([4]; 0.05 μM CPT, day 8 after infection): 1.5 cpm/10^5 Cell
- RT/Cell ([4]; 0.05 μM CPT, day 9 after infection): 9.4 cpm/10^5 Cell
- RT activity ([4]; 0.1 μM CPT, 1 h): 106 ± 30 cpm/cell 10^5
- RT activity ([4]; 0.2 μM CPT, 1 h): 139 ± 96 cpm/cell 10^5
- inhibitory effect on HIV replication ([4]; 0.005-0.02 μM CPT, 1 h, 7 days after infection): 89-93%
- effect of 1 hour exposure during viral infection on HIV replication ([4]; 1 hour exposure): sufficient to prevent HIV replication
- inhibition at 0.005 µM ([4]; Human immunodeficiency virus 1, IIIB, H9, read-out: RT % Inhibition, 0.005 μM CPT, 1 h treatment, day 7 after infection): 84%
- inhibition at 0.005 µM ([4]; Human immunodeficiency virus 1, IIIB, H9, read-out: RT % Inhibition, 0.005 μM CPT, 1 h treatment, day 8 after infection): 74%
- inhibition at 0.005 µM ([4]; Human immunodeficiency virus 1, IIIB, H9, read-out: RT % Inhibition, 0.005 μM CPT, 1 h treatment, day 9 after infection): 24%
- inhibition at 0.01 µM ([4]; Human immunodeficiency virus 1, IIIB, H9, read-out: RT % Inhibition, 0.01 μM CPT, 1 h treatment, day 7 after infection): 85%
- inhibition at 0.01 µM ([4]; Human immunodeficiency virus 1, IIIB, H9, read-out: RT % Inhibition, 0.01 μM CPT, 1 h treatment, day 8 after infection): 75%
- inhibition at 0.01 µM ([4]; Human immunodeficiency virus 1, IIIB, H9, read-out: RT % Inhibition, 0.01 μM CPT, 1 h treatment, day 9 after infection): 17%
- inhibition at 0.02 µM ([4]; Human immunodeficiency virus 1, IIIB, H9, read-out: RT % Inhibition, 0.02 μM CPT, 1 h treatment, day 7 after infection): 100%
- inhibition at 0.02 µM ([4]; Human immunodeficiency virus 1, IIIB, H9, read-out: RT % Inhibition, 0.02 μM CPT, 1 h treatment, day 8 after infection): 98.8%
- inhibition at 0.02 µM ([4]; Human immunodeficiency virus 1, IIIB, H9, read-out: RT % Inhibition, 0.02 μM CPT, 1 h treatment, day 9 after infection): 52%
- inhibition at 0.05 µM ([4]; Human immunodeficiency virus 1, IIIB, H9, read-out: RT % Inhibition, 0.05 μM CPT, 1 h treatment, day 7 after infection): 100%
- inhibition at 0.05 µM ([4]; Human immunodeficiency virus 1, IIIB, H9, read-out: RT % Inhibition, 0.05 μM CPT, 1 h treatment, day 8 after infection): 100%
- inhibition at 0.05 µM ([4]; Human immunodeficiency virus 1, IIIB, H9, read-out: RT % Inhibition, 0.05 μM CPT, 1 h treatment, day 9 after infection): 100%
- inhibition at 0.005 µM ([4]; Human immunodeficiency virus 1, IIIB, H9, read-out: RT activity % Inhibition, 0.005 μM CPT, 1 h, 7 days postinfection): 89 ± 4%
- inhibition at 0.01 µM ([4]; Human immunodeficiency virus 1, IIIB, H9, read-out: RT activity % Inhibition, 0.01 μM CPT, 1 h, 7 days postinfection): 89 ± 4%
- inhibition at 0.02 µM ([4]; Human immunodeficiency virus 1, IIIB, H9, read-out: RT activity % Inhibition, 0.02 μM CPT, 1 h, 7 days postinfection): 93 ± 2%
- inhibition at 0.05 µM ([4]; Human immunodeficiency virus 1, IIIB, H9, read-out: RT activity % Inhibition, 0.05 μM CPT, 1 h, 7 days postinfection): 96 ± 1.5%
- inhibition at 0.1 µM ([4]; Human immunodeficiency virus 1, IIIB, H9, read-out: RT activity % Inhibition, 0.1 μM CPT, 1 h, 7 days postinfection): 98 ± 0.2%
- inhibition at 0.2 µM ([4]; Human immunodeficiency virus 1, IIIB, H9, read-out: RT activity % Inhibition, 0.2 μM CPT, 1 h, 7 days postinfection): 98 ± 0.8%
- inhibiting the initiation of infection by HIV ([4]; cell culture): has been demonstrated
- prevention of HIV replication (RT activity) ([4]; one-hour treatment, 7 days after infection): 94-100%
